Experimental data published in US20180125835A1, “Dosage and Use of an A2A Antagonist” (H. Lundbeck A/S, priority 2014, published 2018).
Where two headings read alike, the source gives them in different places.

Assays:
A1 receptor [1] = biological target: T1, A1 receptor (Rattus norvegicus, UniProt P25099); test: Adenosine receptor binding affinity, rat A1
T1 sequence (P25099 1-326): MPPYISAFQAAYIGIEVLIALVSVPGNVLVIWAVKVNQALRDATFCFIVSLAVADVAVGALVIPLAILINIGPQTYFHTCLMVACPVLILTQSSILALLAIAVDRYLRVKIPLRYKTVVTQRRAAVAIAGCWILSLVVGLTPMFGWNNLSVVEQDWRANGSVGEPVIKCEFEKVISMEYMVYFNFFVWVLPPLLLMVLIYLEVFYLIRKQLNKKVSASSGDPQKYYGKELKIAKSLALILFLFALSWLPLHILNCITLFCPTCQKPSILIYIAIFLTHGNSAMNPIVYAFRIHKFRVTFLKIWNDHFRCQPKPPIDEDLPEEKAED

A2B = biological target: T2, A2B (Homo sapiens, UniProt P29275); test: Adenosine receptor binding affinity, human A2B
T2 sequence (P29275 1-332): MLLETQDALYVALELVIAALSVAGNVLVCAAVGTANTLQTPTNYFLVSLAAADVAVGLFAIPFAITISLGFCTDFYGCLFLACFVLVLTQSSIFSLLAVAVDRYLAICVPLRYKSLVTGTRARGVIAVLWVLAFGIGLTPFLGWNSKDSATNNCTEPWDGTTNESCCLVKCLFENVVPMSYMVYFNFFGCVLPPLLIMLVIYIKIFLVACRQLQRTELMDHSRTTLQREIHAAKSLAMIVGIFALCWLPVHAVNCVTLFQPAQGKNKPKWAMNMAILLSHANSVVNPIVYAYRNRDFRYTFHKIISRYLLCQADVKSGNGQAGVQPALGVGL

[2] = Safety and tolerability study, single-dose pharmacokinetics (Parts A, B, C); assay type: in vivo, human; details: for intra-subject variability (CV %) for AUC0-inf / intra-subject variability (CV %) for Cmax: across the fasting doses; for half-life / Vd/F / Tmax / AUC(0-inf) / Cmax / AUC(0-t): human, oral; for Vd/F: read-out: Vz/F
Method: The study was conducted in three parts: Parts A, B, and C.
Parts A and B were single-dose escalations to determine the safety and tolerability in young healthy men, and in elderly men and women, respectively. Three doses (Cohorts A1 to A3) were tested in healthy young men: 1 mg (N=6), 5 mg (N=6), and 10 mg (N=5); placebo (N=8, total of the three cohorts). […] Two doses (Cohorts B1 and B2) were tested in healthy elderly men and women: 5 mg (N=9 men/4 women), 10 mg (N=4 men/4 women); placebo (N=6 men/4 women, total of the three cohorts). […] A washout period of at least 7 days separated each dose administration.

A3 = biological target: T3, A3 (Homo sapiens, UniProt P0DMS8); test: Adenosine receptor binding affinity, human A3
T3 sequence (P0DMS8 1-318): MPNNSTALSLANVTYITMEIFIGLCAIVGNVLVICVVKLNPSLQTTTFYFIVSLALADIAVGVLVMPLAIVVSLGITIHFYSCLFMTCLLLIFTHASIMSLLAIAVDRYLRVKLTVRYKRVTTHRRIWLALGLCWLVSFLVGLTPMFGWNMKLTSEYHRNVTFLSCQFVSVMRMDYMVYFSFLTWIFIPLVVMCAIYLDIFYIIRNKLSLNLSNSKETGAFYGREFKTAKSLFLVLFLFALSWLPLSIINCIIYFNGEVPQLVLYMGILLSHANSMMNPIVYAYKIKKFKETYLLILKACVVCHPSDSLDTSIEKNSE

A1 receptor [3] = biological target: T4, A1 receptor (Homo sapiens, UniProt P30542); test: Adenosine receptor binding affinity, human A1
T4 sequence (P30542 1-326): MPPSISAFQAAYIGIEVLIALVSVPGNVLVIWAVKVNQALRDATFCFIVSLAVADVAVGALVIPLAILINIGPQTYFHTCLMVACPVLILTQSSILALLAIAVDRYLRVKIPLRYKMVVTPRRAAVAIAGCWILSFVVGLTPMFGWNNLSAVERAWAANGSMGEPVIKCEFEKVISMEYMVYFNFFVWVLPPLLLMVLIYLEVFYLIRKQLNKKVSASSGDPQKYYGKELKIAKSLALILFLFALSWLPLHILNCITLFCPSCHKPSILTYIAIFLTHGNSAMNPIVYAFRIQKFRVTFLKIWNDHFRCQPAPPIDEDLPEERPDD

[4] = both sexes, plasma, 5 mg, Part B, healthy elderly overall, arithmetic mean
[5] = both sexes, plasma, 5 mg, Part C, elderly men and women, Fasting (N = 24)
[6] = both sexes, plasma, 5 mg, Part C, elderly men and women, Fed (N = 12)
[7] = both sexes, plasma, 10 mg, Part B, healthy elderly overall, arithmetic mean
[8] = female, plasma, 5 mg, Part B, healthy elderly women, arithmetic mean
[9] = female, plasma, 10 mg, Part B, healthy elderly women, arithmetic mean
[10] = male, plasma, 1 mg, Part A, healthy young men, 1 mg single dose, mean (CV %)
[11] = male, plasma, 5 mg, Part A, healthy young men, 5 mg single dose, mean (CV %)
[12] = male, plasma, 5 mg, Part B, healthy elderly men, arithmetic mean
[13] = male, plasma, 10 mg, Part A, healthy young men, 10 mg single dose, mean (CV %)
[14] = male, plasma, 10 mg, Part B, healthy elderly men, arithmetic mean

## Cc1ccc(C(=O)Nc2nc(-c3ccco3)c(C(=O)C3CCOCC3)s2)cn1 [Compound 504]
A1 receptor [1]
  Ki: 50.7 ± 3.18 nM
A2B
  Ki: 33.8 ± 5.91 nM
[2]; Part B
  differences in exposure between men and women: no marked differences
[2]; Part B, healthy elderly men, 5 mg, arithmetic mean
  CL/F: 0.611 L/h
[2]; Part B, healthy elderly men, 10 mg, arithmetic mean
  CL/F: 0.908 L/h
[2]; Part B, healthy elderly overall, 5 mg, arithmetic mean
  CL/F: 0.597 L/h
[2]; Part B, healthy elderly overall, 10 mg, arithmetic mean
  CL/F: 0.844 L/h
[2]; Part B, healthy elderly women, 5 mg, arithmetic mean
  CL/F: 0.556 L/h
[2]; Part B, healthy elderly women, 10 mg, arithmetic mean
  CL/F: 0.780 L/h
[2]; Part C, 5 mg
  mean Cmax lower in the fed state than in the fasting state: approximately 23%
  overall exposure (AUC0-inf and AUC0-t) fed compared to fasting: not statistically significantly different
[2]; Part C, men
  intra-subject variability (CV %) for AUC0-inf: 27%
  intra-subject variability (CV %) for Cmax: 16%
[2]; Part C, women
  intra-subject variability (CV %) for AUC0-inf: 59%
  intra-subject variability (CV %) for Cmax: 23%
[2]; Parts A and B, post-dose
  time until which plasma concentration plateaued after Cmax: approximately 5 hours
[2]; both sexes, in vivo, Parts A and B, 1 to 10 mg, read-out: mean half-life (t1/2) across dose levels
  half-life: 19 to 25 h
[2]; both sexes, plasma, 5 mg, Part B, healthy elderly overall, 5 mg, arithmetic mean
  Vd/F: 16.9 L
[2]; both sexes, plasma, 5 mg, Part B, healthy elderly overall, 5 mg, arithmetic mean, read-out: t1/2 (converted)
  half-life: 22 h
[2]; both sexes, plasma, 5 mg, Part B, healthy elderly overall, 5 mg, median, read-out: tmax
  Tmax: 1 h
[2]; [4]
  AUC(0-inf): 9580 ng·h/mL
  Cmax: 388 ng/mL
[2]; both sexes, plasma, 5 mg, Part C, 5 mg, read-out: delay of median tmax in the fed state
  Tmax: 2 to 3 h
[2]; both sexes, plasma, 5 mg, Part C, elderly men and women, 5 mg, Fasting (N = 24), read-out: t1/2 (converted)
  half-life: 14.9 h
[2]; both sexes, plasma, 5 mg, Part C, elderly men and women, 5 mg, Fed (N = 11), read-out: t1/2 (converted)
  half-life: 15.8 h
[2]; [5]
  AUC(0-inf): 6310 ng·h/mL
  AUC(0-t): 5960 ng·h/mL
  Cmax: 348 ng/mL
[2]; both sexes, plasma, 5 mg, Part C, elderly men and women, Fed (N = 11)
  AUC(0-inf): 5960 ng·h/mL
[2]; [6]
  AUC(0-t): 5560 ng·h/mL
  Cmax: 269 ng/mL
[2]; both sexes, plasma, 10 mg, Part B, healthy elderly overall, 10 mg, arithmetic mean
  Vd/F: 20.6 L
[2]; both sexes, plasma, 10 mg, Part B, healthy elderly overall, 10 mg, arithmetic mean, read-out: t1/2 (converted)
  half-life: 20.2 h
[2]; both sexes, plasma, 10 mg, Part B, healthy elderly overall, 10 mg, median, read-out: tmax
  Tmax: 0.75 h
[2]; [7]
  AUC(0-inf): 14900 ng·h/mL
  Cmax: 717 ng/mL
[2]; both sexes, plasma, Parts A and B, each dose, post-dose, read-out: median tmax
  Tmax: 0.75 to 1.75 h
[2]; dose range 1 to 10 mg
  increase of exposure (AUC0-24 and Cmax) with dose: approximate dose-proportional manner
[2]; female, plasma, 5 mg, Part B, healthy elderly women, 5 mg, arithmetic mean
  Vd/F: 13.6 L
[2]; female, plasma, 5 mg, Part B, healthy elderly women, 5 mg, arithmetic mean, read-out: t1/2 (converted)
  half-life: 17.4 h
[2]; female, plasma, 5 mg, Part B, healthy elderly women, 5 mg, median, read-out: tmax
  Tmax: 1 h
[2]; [8]
  AUC(0-inf): 9550 ng·h/mL
  Cmax: 485 ng/mL
[2]; female, plasma, 10 mg, Part B, healthy elderly women, 10 mg, arithmetic mean
  Vd/F: 19.6 L
[2]; female, plasma, 10 mg, Part B, healthy elderly women, 10 mg, arithmetic mean, read-out: t1/2 (converted)
  half-life: 18.8 h
[2]; female, plasma, 10 mg, Part B, healthy elderly women, 10 mg, median, read-out: tmax
  Tmax: 0.75 h
[2]; [9]
  AUC(0-inf): 14100 ng·h/mL
  Cmax: 781 ng/mL
[2]; in vivo
  differences in pharmacokinetic profile between healthy young and elderly subjects: no apparent differences
[2]; [10]
  AUC(0-inf): 2660 ng·h/mL
  Cmax: 82.7 ng/mL
  Vd/F: 13.4 L
[2]; male, plasma, 1 mg, Part A, healthy young men, 1 mg single dose, mean (CV %), read-out: t1/2 (converted)
  half-life: 24.3 h
[2]; male, plasma, 1 mg, Part A, healthy young men, 1 mg single dose, median (min, max), read-out: tmax
  Tmax: 1.25 h
[2]; [11]
  AUC(0-inf): 12600 ng·h/mL
  Cmax: 423 ng/mL
  Vd/F: 14.8 L
[2]; male, plasma, 5 mg, Part A, healthy young men, 5 mg single dose, mean (CV %), read-out: t1/2 (converted)
  half-life: 25 h
[2]; male, plasma, 5 mg, Part A, healthy young men, 5 mg single dose, median (min, max), read-out: tmax
  Tmax: 1.75 h
[2]; male, plasma, 5 mg, Part B, healthy elderly men, 5 mg, arithmetic mean
  Vd/F: 18 L
[2]; male, plasma, 5 mg, Part B, healthy elderly men, 5 mg, arithmetic mean, read-out: t1/2 (converted)
  half-life: 23.5 h
[2]; male, plasma, 5 mg, Part B, healthy elderly men, 5 mg, median, read-out: tmax
  Tmax: 1 h
[2]; [12]
  AUC(0-inf): 9590 ng·h/mL
  Cmax: 356 ng/mL
[2]; [13]
  AUC(0-inf): 18100 ng·h/mL
  Cmax: 787 ng/mL
  Vd/F: 15.3 L
[2]; male, plasma, 10 mg, Part A, healthy young men, 10 mg single dose, mean (CV %), read-out: t1/2 (converted)
  half-life: 19.3 h
[2]; male, plasma, 10 mg, Part A, healthy young men, 10 mg single dose, median (min, max), read-out: tmax
  Tmax: 1 h
[2]; male, plasma, 10 mg, Part B, healthy elderly men, 10 mg, arithmetic mean
  Vd/F: 21.6 L
[2]; male, plasma, 10 mg, Part B, healthy elderly men, 10 mg, arithmetic mean, read-out: t1/2 (converted)
  half-life: 21.6 h
[2]; male, plasma, 10 mg, Part B, healthy elderly men, 10 mg, median, read-out: tmax
  Tmax: 0.75 h
[2]; [14]
  AUC(0-inf): 15700 ng·h/mL
  Cmax: 652 ng/mL
A3
  Ki: 428 ± 72.5 nM
A1 receptor [3]
  Ki: 103 ± 18.4 nM
